Laboratory results: US20260262643A1, “HERBICIDAL BENZOXAZINES” (FMC CORPORATION, priority 2022, published 2026)

Legend:
kochia [1] = experiment: Test C postemergence; format: in vivo, Bassia scoparia; details: 10 days
Procedure, shortened: (§1)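 Soil-applied (pre) and foliar (post, 1–2 leaf, 2–10 cm) sprays; surfactant-containing non-phytotoxic solvent vehicle; loam/sand substrate. Readout: visual % control at 10 d, greenhouse, versus untreated.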

kochia [2] = experiment: Test C preemergence; format: in vivo, Bassia scoparia; details: 0 to 100 scale (0 no effect, 100 complete control); for Kochia plant response rating: preemergence
Procedure, shortened: as §1

green foxtail [3] = experiment: Test C preemergence; format: in vivo, Setaria viridis; details: 0 to 100 scale (0 no effect, 100 complete control); for Foxtail, Green plant response rating: preemergence
Procedure, shortened: as §1

wheat [4] = experiment: Test C preemergence; format: in vivo, Triticum aestivum; details: 0 to 100 scale (0 no effect, 100 complete control); for Wheat plant response rating: preemergence
Procedure, shortened: as §1

ragweed [5] = experiment: Test C postemergence; format: in vivo, Ambrosia artemisiifolia; details: 10 days
Procedure, shortened: as §1

rice = experiment: Test D flooded paddy test; format: in vivo, Oryza sativa; details: 250 g ai/ha, applied to paddy water, visual rating after 13 to 14 days, scale 0 to 100 (0 no effect, 100 complete control)
Procedure, shortened: (§2)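 Visual ratings from 0, meaning no effect, to 100, meaning complete control, were assigned against untreated controls 13 to 14 days after compounds were added to the floodwater of pots kept 3 cm deep, with plants at the 2-leaf stage.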

wheat [6] = experiment: Test C postemergence; format: in vivo, Triticum aestivum; details: 10 days
Procedure, shortened: as §1

pigweed, palmer [7] = experiment: Test C preemergence; format: in vivo, Amaranthus palmeri; details: 0 to 100 scale (0 no effect, 100 complete control); for Pigweed, Palmer plant response rating: preemergence
Procedure, shortened: as §1

sedge, umbrella = experiment: Test D flooded paddy test; format: in vivo, Cyperus difformis; details: 250 g ai/ha, applied to paddy water, visual rating after 13 to 14 days, scale 0 to 100 (0 no effect, 100 complete control)
Procedure, shortened: as §2

corn [8] = experiment: Test C preemergence; format: in vivo, Zea mays; details: 0 to 100 scale (0 no effect, 100 complete control); for Corn plant response rating: preemergence
Procedure, shortened: as §1

ducksalad = experiment: Test D flooded paddy test; format: in vivo, Heteranthera limosa; details: 250 g ai/ha, applied to paddy water, visual rating after 13 to 14 days, scale 0 to 100 (0 no effect, 100 complete control)
Procedure, shortened: as §2

barnyardgrass [9] = experiment: Test D flooded paddy test; format: in vivo, Echinochloa crus-galli; details: 250 g ai/ha, applied to paddy water, visual rating after 13 to 14 days, scale 0 to 100 (0 no effect, 100 complete control)
Procedure, shortened: as §2

blackgrass [10] = experiment: Test C preemergence; format: in vivo, Alopecurus myosuroides; details: 0 to 100 scale (0 no effect, 100 complete control); for Plant response rating, Blackgrass: Preemergence, 500 g ai/ha, visual rating after 10 days; for Blackgrass plant response rating: Test C, preemergence, 125 g ai/ha
Procedure, shortened: as §1

soybean [11] = experiment: Test C preemergence; format: in vivo, Glycine max; details: 0 to 100 scale (0 no effect, 100 complete control); for Soybean plant response rating: preemergence
Procedure, shortened: as §1

pigweed, palmer [12] = experiment: Test C postemergence; format: in vivo, Amaranthus palmeri; details: 10 days
Procedure, shortened: as §1

oat, wild [13] = experiment: Test C postemergence; format: in vivo, Avena fatua; details: 10 days
Procedure, shortened: as §1

corn [14] = experiment: Test C postemergence; format: in vivo, Zea mays; details: 10 days
Procedure, shortened: as §1

oat, wild [15] = experiment: Test C preemergence; format: in vivo, Avena fatua; details: 0 to 100 scale (0 no effect, 100 complete control); for Oat, Wild plant response rating: preemergence
Procedure, shortened: as §1

ryegrass, Italian [16] = experiment: Test C preemergence; format: in vivo, Lolium multiflorum; details: 0 to 100 scale (0 no effect, 100 complete control); for Ryegrass, Italian plant response rating: preemergence
Procedure, shortened: as §1

barnyardgrass [17] = experiment: Test C postemergence; format: in vivo, Echinochloa crusgalli; details: 10 days
Procedure, shortened: as §1

green foxtail [18] = experiment: Test C postemergence; format: in vivo, Setaria viridis; details: 10 days
Procedure, shortened: as §1

blackgrass [19] = experiment: Test C postemergence; format: in vivo, Alopecurus myosuroides; details: 10 days
Procedure, shortened: as §1

ryegrass, Italian [20] = experiment: Test C postemergence; format: in vivo, Lolium multiflorum; details: 10 days
Procedure, shortened: as §1

ragweed [21] = experiment: Test C preemergence; format: in vivo, Ambrosia artemisiifolia; details: 0 to 100 scale (0 no effect, 100 complete control); for Ragweed plant response rating: preemergence
Procedure, shortened: as §1

barnyardgrass [22] = experiment: Test C preemergence; format: in vivo, Echinochloa crusgalli; details: 0 to 100 scale (0 no effect, 100 complete control); for Plant response rating, Barnyardgrass: Preemergence, 500 g ai/ha, visual rating after 10 days; for Barnyardgrass plant response rating: Test C, preemergence, 125 g ai/ha
Procedure, shortened: as §1

galium = experiment: Test C postemergence; format: in vivo, Galium aparine; details: 10 days
Procedure, shortened: as §1

horseweed = experiment: Test C postemergence; format: in vivo, Erigeron canadensis; details: 10 days
Procedure, shortened: as §1

soybean [23] = experiment: Test C postemergence; format: in vivo, Glycine max; details: 10 days
Procedure, shortened: as §1

[24] = 125 g ai/ha, postemergence, 0 to 100 scale, 0 no effect, 100 complete control
[25] = Postemergence, 500 g ai/ha, visual 0 to 100 scale (0 no effect, 100 complete control)
[26] = Preemergence, 500 g ai/ha, visual rating after 10 days

Structure (SMILES): Cc1cccc2c1O[C@H](C)CN2C(=O)c1cccc(-c2ncn(C(C)C)n2)c1 [Compound 221]
- Plant response rating, Kochia (kochia [1]; [24]): 0
- Plant response rating, Kochia (kochia [1]; [25]): 0
- Plant response rating, Kochia (kochia [2]; [26]): 0
- Kochia plant response rating (kochia [2]; Test C, 125 g ai/ha): 0
- Plant response rating, Foxtail, Green (green foxtail [3]; [26]): 0
- Foxtail, Green plant response rating (green foxtail [3]; Test C, 125 g ai/ha): 0
- Plant response rating, Wheat (wheat [4]; [26]): 0
- Wheat plant response rating (wheat [4]; Test C, 125 g ai/ha): 0
- Plant response rating, Ragweed (ragweed [5]; [24]): 0
- Plant response rating, Ragweed (ragweed [5]; [25]): 0
- Plant response rating, Rice (Flood) (rice): 0
- Plant response rating, Wheat (wheat [6]; [24]): 0
- Plant response rating, Wheat (wheat [6]; [25]): 0
- Plant response rating, Pigweed, Palmer (pigweed, palmer [7]; [26]): 0
- Plant response rating, Sedge, Umbrella (Flood) (sedge, umbrella): 0
- Plant response rating, Corn (corn [8]; [26]): 0
- Corn plant response rating (corn [8]; Test C, 125 g ai/ha): 0
- Plant response rating, Ducksalad (Flood) (ducksalad): 0
- Plant response rating, Barnyardgrass (Flood) (barnyardgrass [9]): 0
- Plant response rating, Blackgrass (blackgrass [10]): 0
- Blackgrass plant response rating (blackgrass [10]): 0
- Plant response rating, Soybean (soybean [11]; [26]): 0
- Soybean plant response rating (soybean [11]; Test C, 125 g ai/ha): 0
- Plant response rating, Pigweed, Palmer (pigweed, palmer [12]; [24]): 0
- Plant response rating, Pigweed, Palmer (pigweed, palmer [12]; [25]): 0
- Plant response rating, Oat, Wild (oat, wild [13]; [24]): 0
- Plant response rating, Oat, Wild (oat, wild [13]; [25]): 0
- Plant response rating, Corn (corn [14]; [24]): 0
- Plant response rating, Corn (corn [14]; [25]): 0
- Plant response rating, Oat, Wild (oat, wild [15]; [26]): 0
- Oat, Wild plant response rating (oat, wild [15]; Test C, 125 g ai/ha): 0
- Plant response rating, Ryegrass, Italian (ryegrass, Italian [16]; [26]): 0
- Ryegrass, Italian plant response rating (ryegrass, Italian [16]; Test C, 125 g ai/ha): 0
- Plant response rating, Barnyardgrass (barnyardgrass [17]; [24]): 0
- Plant response rating, Barnyardgrass (barnyardgrass [17]; [25]): 10
- Plant response rating, Foxtail, Green (green foxtail [18]; [24]): 0
- Plant response rating, Foxtail, Green (green foxtail [18]; [25]): 0
- Plant response rating, Blackgrass (blackgrass [19]; [24]): 0
- Plant response rating, Blackgrass (blackgrass [19]; [25]): 0
- Plant response rating, Ryegrass, Italian (ryegrass, Italian [20]; [24]): 0
- Plant response rating, Ryegrass, Italian (ryegrass, Italian [20]; [25]): 0
- Plant response rating, Ragweed (ragweed [21]; [26]): 0
- Ragweed plant response rating (ragweed [21]; Test C, 125 g ai/ha): 0
- Plant response rating, Barnyardgrass (barnyardgrass [22]): 0
- Barnyardgrass plant response rating (barnyardgrass [22]): 0
- Plant response rating, Galium (galium; [24]): 0
- Plant response rating, Galium (galium; [25]): 0
- Plant response rating, Horseweed (horseweed; [24]): 0
- Plant response rating, Horseweed (horseweed; [25]): 20
- Plant response rating, Soybean (soybean [23]; [24]): 0
- Plant response rating, Soybean (soybean [23]; [25]): 0

Structure (SMILES): CCc1ccc(-n2cnc(C(C)(C)O)n2)cc1C(=O)N1C[C@H](C)Oc2c(Cl)cccc21 [Compound 277]
- Plant response rating, Kochia (kochia [1]; [24]): 70
- Kochia plant response rating (kochia [2]; 500 g ai/ha): 90
- Kochia plant response rating (kochia [2]; Test C, 125 g ai/ha): 70
- Foxtail, Green plant response rating (green foxtail [3]; 500 g ai/ha): 100
- Foxtail, Green plant response rating (green foxtail [3]; Test C, 125 g ai/ha): 100
- Wheat plant response rating (wheat [4]; 500 g ai/ha): 80
- Wheat plant response rating (wheat [4]; Test C, 125 g ai/ha): 50
- Plant response rating, Ragweed (ragweed [5]; [24]): 80
- Plant response rating, Rice (Flood) (rice): 15
- Plant response rating, Wheat (wheat [6]; [24]): 50
- Pigweed, Palmer plant response rating (pigweed, palmer [7]; 500 g ai/ha): 100
- Pigweed, Palmer plant response rating (pigweed, palmer [7]; Test C, 125 g ai/ha): 100
- Plant response rating, Sedge, Umbrella (Flood) (sedge, umbrella): 98
- Corn plant response rating (corn [8]; 500 g ai/ha): 80
- Corn plant response rating (corn [8]; Test C, 125 g ai/ha): 50
- Plant response rating, Ducksalad (Flood) (ducksalad): 40
- Plant response rating, Barnyardgrass (Flood) (barnyardgrass [9]): 55
- Plant response rating, Blackgrass (blackgrass [10]): 90
- Blackgrass plant response rating (blackgrass [10]): 80
- Soybean plant response rating (soybean [11]; 500 g ai/ha): 100
- Soybean plant response rating (soybean [11]; Test C, 125 g ai/ha): 90
- Plant response rating, Pigweed, Palmer (pigweed, palmer [12]; [24]): 80
- Plant response rating, Oat, Wild (oat, wild [13]; [24]): 80
- Plant response rating, Corn (corn [14]; [24]): 90
- Plant response rating, Corn (corn [14]; [25]): 100
- Oat, Wild plant response rating (oat, wild [15]; 500 g ai/ha): 90
- Oat, Wild plant response rating (oat, wild [15]; Test C, 125 g ai/ha): 80
- Ryegrass, Italian plant response rating (ryegrass, Italian [16]; 500 g ai/ha): 100
- Ryegrass, Italian plant response rating (ryegrass, Italian [16]; Test C, 125 g ai/ha): 80
- Plant response rating, Barnyardgrass (barnyardgrass [17]; [24]): 100
- Plant response rating, Barnyardgrass (barnyardgrass [17]; [25]): 100
- Plant response rating, Foxtail, Green (green foxtail [18]; [24]): 90
- Plant response rating, Foxtail, Green (green foxtail [18]; [25]): 90
- Plant response rating, Blackgrass (blackgrass [19]; [24]): 80
- Plant response rating, Blackgrass (blackgrass [19]; [25]): 90
- Plant response rating, Ryegrass, Italian (ryegrass, Italian [20]; [24]): 90
- Ragweed plant response rating (ragweed [21]; 500 g ai/ha): 70
- Ragweed plant response rating (ragweed [21]; Test C, 125 g ai/ha): 30
- Plant response rating, Barnyardgrass (barnyardgrass [22]): 100
- Barnyardgrass plant response rating (barnyardgrass [22]): 100
- Plant response rating, Galium (galium; [24]): 100
- Plant response rating, Galium (galium; [25]): 100
- Plant response rating, Horseweed (horseweed; [24]): 0
- Plant response rating, Horseweed (horseweed; [25]): 30
- Plant response rating, Soybean (soybean [23]; [24]): 100
